Columns and labels:
Assay type in all cases: in vivo
[1] = system: Glycine max (GLXMA); assay: Post-emergence effects on crop plants, section F (Table F4); details: application rate 80 g/ha; for percent crop plant damage at 80 g/ha: Glycine max, 504 h, read-out: post-emergence activity against GLXMA in %
Summary of the method: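 Visual % damage versus untreated controls (100% = plants died, 0% = as control), assessed ca. 3 weeks after post-emergence spraying. Greenhouse plants in sandy loam were treated at the single-leaf stage with WP/EC formulations, 0.5% additive, 600 l water/ha, at 320 g/ha or below.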

[2] = system: Alopecurus myosuroides (ALOMY); assay: Herbicidal pre-emergence action, section C (Table C2); details: visual grading after ca. 3 weeks vs untreated controls; for pest or weed control at 320 g/ha / pre-emergence activity against ALOMY in %: application rate 320 g/ha
Text: (§1) Seeds of mono- and dicotyledonous weed plants and crop plants were sown, in plastic or organic planting pots, in sandy loam and covered with soil. The compounds according to the invention, formulated in the form of wettable powders (WP) or as emulsifiable concentrates (EC), were applied to the surface of the covering soil as aqueous suspension or emulsion, with the addition of 0.5% of an additive, at an application rate of 600 l of water/ha (converted). Following treatment, the pots were placed in a greenhouse and kept under optimum growth conditions for the test plants. The visual grading of the damage to the test plants was carried out after ca. 3 weeks in comparison to untreated controls (herbicidal effect in percent (%): 100% effect=plants have died off, 0% effect=as control plants).

[3] = system: Setaria viridis (SETVI); assay: Herbicidal pre-emergence action, section C (Table C8); details: visual grading after ca. 3 weeks
Summary of the method: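 Visual damage rating at ca. 3 weeks relative to untreated controls, expressed as % effect (100% = plants died, 0% = like controls). Pre-emergence treatment: WP or EC formulations applied to the soil surface over sown seeds in sandy loam, 600 l water/ha, 0.5% additive.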

[4] = system: Amaranthus retroflexus (AMARE); assay: Herbicidal pre-emergence action, section A (Table A11); details: for pre-emergence activity against AMARE in % / pest or weed control at 1280 g/ha: application rate 1280 g/ha; for pest or weed control at 1280 g/ha / pest or weed control at 320 g/ha: Amaranthus retroflexus, 504 h, read-out: pre-emergence activity against AMARE in %; for pest or weed control at 320 g/ha: application rate 320 g/ha
Summary of the method: (§2)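 Seeds sown in sandy loam and covered with soil; compounds formulated as WP or EC were applied to the soil surface as aqueous suspension or emulsion with 0.5% additive at 600 l water/ha. Pots kept in greenhouse under optimum conditions; damage scored visually after ca. 3 weeks versus untreated controls (0–100%).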

[5] = system: Matricaria inodora (MATIN); assay: Herbicidal pre-emergence action, section A (Table A6); details: visual grading after ca. 3 weeks vs untreated controls; for pest or weed control at 1280 g/ha: application rate 1280 g/ha
Summary of the method: as §2

[6] = system: Triticum aestivum (TRZAS); assay: Pre-emergence effects on crop plants, section D (Table D2); details: visual grading after ca. 3 weeks
Summary of the method: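 Seeds sown in sandy loam and covered with soil; WP or EC formulations applied to the covering soil surface as aqueous suspension/emulsion with 0.5% additive at 600 l water/ha, at 320 g/ha or below. Greenhouse growth; visual damage scored after ca. 3 weeks versus untreated controls (0% = as control, 100% = dead).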

[7] = system: Poa annua (POAAN); assay: Herbicidal pre-emergence action, section A (Table A7); details: visual grading after ca. 3 weeks vs untreated controls
Summary of the method: as §2

[8] = system: Setaria viridis (SETVI); assay: Herbicidal pre-emergence action, section A (Table A8)
Summary of the method: as §2

[9] = system: Lolium rigidum (LOLRI); assay: Herbicidal pre-emergence action, section A (Table A5); details: visual grading after ca. 3 weeks vs untreated controls; for pre-emergence activity against LOLRI in % / pest or weed control at 320 g/ha: application rate 320 g/ha
Summary of the method: as §2

[10] = system: Abutilon theophrasti (ABUTH); assay: Herbicidal pre-emergence action, section C (Table C1); details: Abutilon theophrasti, pre-emergence, 504 h; application rate 320 g/ha; visual grading after ca. 3 weeks vs untreated controls; read-out: pre-emergence activity against ABUTH in %
Text: as §1

[11] = system: Abutilon theophrasti (ABUTH); assay: Herbicidal post-emergence action, section B (Table B1); details: Abutilon theophrasti, 504 h, application rate 1280 g/ha, rated visually after about 3 weeks, read-out: post-emergence activity against ABUTH in %
Summary of the method: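 Post-emergence greenhouse test. One-leaf stage; WP or EC plus 0.5% additive; 600 liters per hectare water volume; visual % rating at ~3 weeks relative to untreated plants.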

[12] = Alopecurus myosuroides, pre-emergence, 504 h, read-out: pre-emergence activity against ALOMY in %
[13] = Setaria viridis, pre-emergence, 504 h, application rate 80 g/ha, read-out: pre-emergence activity against SETVI in %
[14] = Tripleurospermum inodorum, pre-emergence, 504 h, read-out: pre-emergence activity against MATIN in %
[15] = Setaria viridis, 504 h, application rate 320 g/ha, read-out: pre-emergence activity against SETVI in %
[16] = Lolium rigidum, pre-emergence, 504 h, read-out: pre-emergence activity against LOLRI in %
[17] = Poa annua, pre-emergence, 504 h, application rate 1280 g/ha, read-out: pre-emergence activity against POAAN in %

Question: How did the percent crop plant damage at 80 g/ha [1] turn out when `Fc1ccccc1-c1nc2c(cc1Br)SCN2` [Example I-001, 6-bromo-5-(2-fluorophenyl)-2,3-dihydro[1,3]thiazolo[4,5-b]pyridine] was run?
Answer: Its percent crop plant damage at 80 g/ha is 20%.

Question: And the pest or weed control at 320 g/ha [2, 12]?
Answer: The pest or weed control at 320 g/ha was 100%.

Question: And the pest or weed control at 80 g/ha [3, 13]?
Answer: The pest or weed control at 80 g/ha was 100%.

Question: `COC(=O)CCC(=O)N1CSc2cc(Cl)c(-c3ccccc3F)nc21` [Example I-003] was tested. Which “post-emergence activity against GLXMA in %” value ([1]; crop plant damage) did it give?
Answer: The value was 0%.

Question: And the “pre-emergence activity against AMARE in %” value [4]?
Answer: The value was 90%.

Question: What about the “pre-emergence activity against ALOMY in %” value [2] of the same compound?
Answer: Its value is 80%.

Question: And the “pre-emergence activity against MATIN in %” value ([5]; application rate 320 g/ha)?
Answer: The value was 90%.

Question: And the “pre-emergence activity against TRZAS in % (crop plant damage)” value ([6]; application rate 80 g/ha)?
Answer: The value was 20%.

Question: And the “pre-emergence activity against POAAN in %” value ([7]; application rate 1280 g/ha)?
Answer: The value was 100%.

Question: What about the “pre-emergence activity against SETVI in %” value ([3]; application rate 320 g/ha) of the same compound?
Answer: Its value is 100%.

Question: And the “pre-emergence activity against SETVI in %” value ([8]; application rate 320 g/ha)?
Answer: Its value is 100%.

Question: And the “pre-emergence activity against LOLRI in %” value [9]?
Answer: Its value is 100%.

Question: How did the pest or weed control at 1280 g/ha [4] turn out when `Cc1cc2c(nc1-c1ccccc1F)NCS2` [Example I-007, 5-(2-fluorophenyl)-6-methyl-2,3-dihydro[1,3]thiazolo[4,5-b]pyridine] was run?
Answer: The pest or weed control at 1280 g/ha was 90%.

Question: What about the pest or weed control at 320 g/ha [2, 12] of the same compound?
Answer: Its pest or weed control at 320 g/ha is 100%.

Question: What about the pest or weed control at 320 g/ha [10] of the same compound?
Answer: Its pest or weed control at 320 g/ha is 80%.

Question: What about the pest or weed control at 1280 g/ha [5, 14] of the same compound?
Answer: The pest or weed control at 1280 g/ha was 90%.

Question: And the pest or weed control at 320 g/ha ([7]; Poa annua, pre-emergence, 504 h, application rate 320 g/ha, read-out: pre-emergence activity against POAAN in %)?
Answer: The pest or weed control at 320 g/ha was 100%.

Question: What about the pest or weed control at 80 g/ha [3, 13] of the same compound?
Answer: The pest or weed control at 80 g/ha was 100%.

Question: And the pest or weed control at 320 g/ha [8, 15]?
Answer: The pest or weed control at 320 g/ha was 100%.

Question: And the pest or weed control at 320 g/ha [9, 16]?
Answer: Its pest or weed control at 320 g/ha is 100%.

Question: Which “pre-emergence activity against AMARE in %” value [4] does the source give for `BN1CSc2cc(Br)c(-c3ccccc3C)nc21` [Example I-011] here?
Answer: The value was 90%.

Question: What about the “pre-emergence activity against ALOMY in %” value [2] of the same compound?
Answer: Its value is 90%.

Question: And the “pre-emergence activity against POAAN in %” value ([7]; application rate 320 g/ha)?
Answer: The value was 100%.

Question: What about the “pre-emergence activity against SETVI in %” value ([3]; application rate 80 g/ha) of the same compound?
Answer: The value was 100%.

Question: What about the “pre-emergence activity against SETVI in %” value ([8]; application rate 1280 g/ha) of the same compound?
Answer: The value was 90%.

Question: What about the “pre-emergence activity against LOLRI in %” value [9] of the same compound?
Answer: Its value is 100%.

Question: Which pest or weed control at 1280 g/ha [11] does the source give for `Cc1cc2c(nc1-c1cccc(F)c1F)NCS2` [Example I-029, 5-(2,3-difluorophenyl)-6-methyl-2,3-dihydro[1,3]thiazolo[4,5-b]pyridine] here?
Answer: Its pest or weed control at 1280 g/ha is 90%.

Question: And the pest or weed control at 320 g/ha [4]?
Answer: The pest or weed control at 320 g/ha was 90%.

Question: And the pest or weed control at 80 g/ha ([2]; Alopecurus myosuroides, pre-emergence, 504 h, application rate 80 g/ha, read-out: pre-emergence activity against ALOMY in %)?
Answer: The pest or weed control at 80 g/ha was 100%.

Question: And the pest or weed control at 320 g/ha ([5]; Tripleurospermum inodorum, pre-emergence, 504 h, application rate 320 g/ha, read-out: pre-emergence activity against MATIN in %)?
Answer: The pest or weed control at 320 g/ha was 90%.

Question: And the pest or weed control at 1280 g/ha [7, 17]?
Answer: Its pest or weed control at 1280 g/ha is 100%.

Question: What about the pest or weed control at 80 g/ha [3, 13] of the same compound?
Answer: The pest or weed control at 80 g/ha was 100%.

Question: And the pest or weed control at 320 g/ha [8, 15]?
Answer: Its pest or weed control at 320 g/ha is 100%.

Question: What about the pest or weed control at 320 g/ha [9, 16] of the same compound?
Answer: Its pest or weed control at 320 g/ha is 100%.

Question: For `Clc1ccccc1-c1nc2c(cc1Br)SCN2` [Example I-041, 6-bromo-5-(2-chlorophenyl)-2,3-dihydro[1,3]thiazolo[4,5-b]pyridine], which pest or weed control at 1280 g/ha [11] is on record?
Answer: Its pest or weed control at 1280 g/ha is 90%.

Question: And the percent crop plant damage at 80 g/ha [1]?
Answer: Its percent crop plant damage at 80 g/ha is 0%.

Question: What about the pest or weed control at 320 g/ha [4] of the same compound?
Answer: The pest or weed control at 320 g/ha was 90%.

Question: What about the pest or weed control at 320 g/ha [2, 12] of the same compound?
Answer: Its pest or weed control at 320 g/ha is 80%.

Question: What about the pest or weed control at 1280 g/ha [5, 14] of the same compound?
Answer: Its pest or weed control at 1280 g/ha is 90%.

Question: And the “pre-emergence activity against TRZAS in % (crop plant damage)” value ([6]; application rate 320 g/ha)?
Answer: Its value is 20%.

Question: What about the pest or weed control at 1280 g/ha [7, 17] of the same compound?
Answer: Its pest or weed control at 1280 g/ha is 100%.

Question: What about the pest or weed control at 80 g/ha [3, 13] of the same compound?
Answer: The pest or weed control at 80 g/ha was 90%.

Question: And the pest or weed control at 320 g/ha [8, 15]?
Answer: Its pest or weed control at 320 g/ha is 100%.

Question: What about the pest or weed control at 1280 g/ha ([9]; Lolium rigidum, pre-emergence, 504 h, application rate 1280 g/ha, read-out: pre-emergence activity against LOLRI in %) of the same compound?
Answer: Its pest or weed control at 1280 g/ha is 100%.

Question: With `CCc1ccccc1-c1nc2c(cc1C)[S+]([O-])CN2` (stereo not drawn) [Example I-047] as the compound, how does the percent crop plant damage at 80 g/ha [1] read?
Answer: Its percent crop plant damage at 80 g/ha is 0%.

Question: And the pest or weed control at 1280 g/ha [4]?
Answer: The pest or weed control at 1280 g/ha was 90%.

Question: What about the pest or weed control at 1280 g/ha [5, 14] of the same compound?
Answer: Its pest or weed control at 1280 g/ha is 90%.

Question: What about the “pre-emergence activity against TRZAS in % (crop plant damage)” value ([6]; application rate 320 g/ha) of the same compound?
Answer: Its value is 10%.

Question: And the pest or weed control at 1280 g/ha [7, 17]?
Answer: Its pest or weed control at 1280 g/ha is 100%.

Question: What about the pest or weed control at 320 g/ha ([3]; Setaria viridis, pre-emergence, 504 h, application rate 320 g/ha, read-out: pre-emergence activity against SETVI in %) of the same compound?
Answer: The pest or weed control at 320 g/ha was 100%.

Question: What about the pest or weed control at 1280 g/ha ([8]; Setaria viridis, 504 h, application rate 1280 g/ha, read-out: pre-emergence activity against SETVI in %) of the same compound?
Answer: Its pest or weed control at 1280 g/ha is 100%.
